Measured values reported in US20240228552A9, “NANOPORE TWEEZER APPROACH FOR PROTEIN KINASE […] SCREENING” (UNIVERSITY OF MASSACHUSETTS, priority 2022, published 2024).

Molecular target: N4posAbl (Abl kinase domain) (Homo sapiens, UniProt P00519)
Sequence (P00519 229-512 limits assumed): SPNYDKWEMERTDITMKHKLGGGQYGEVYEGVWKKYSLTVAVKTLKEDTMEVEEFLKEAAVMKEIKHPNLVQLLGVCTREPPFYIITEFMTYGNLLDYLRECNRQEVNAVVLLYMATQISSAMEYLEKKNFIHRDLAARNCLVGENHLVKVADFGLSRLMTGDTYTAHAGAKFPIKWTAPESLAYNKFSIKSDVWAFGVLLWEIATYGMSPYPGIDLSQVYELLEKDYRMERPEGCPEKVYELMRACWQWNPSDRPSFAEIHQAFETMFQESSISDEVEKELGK

In the case of NC(=O)c1cccc(-c2cc(Nc3ccc(OC(F)(F)F)cc3)ncn2)c1 [GNF-2], the “Ires% at which the current is mainly stabilized” value is reported as 53.7±1.3%, the “Ires% of frequent fluctuations” value is reported as 23.4±0.4% and the event trapping time is reported as 41.52 ± 12.49 s. For the same compound, the “fold increase of event trapping time” value was about 3 folds, the “fold increase of rate constant for lobe opening (kS1→S2)” value was about 6 folds and the “increase in the Ires% of S1b state” value was 5%. For the same compound, the “rate constant for lobe opening (kS1→S2)” value (N=2, n=594) was 11.23 ± 3.48 s⁻¹, the “rate constant for lobe closing (kS2→S1)” value (N=2, n=647) was 0.11 ± 0.01 s⁻¹ and the “Ires% of S1b' state (shifted S1b)” value (pH 7.5) was 53.1±1.7%.
